These results are taken from patent publication US20110172147A1, “NEUROPEPTIDE-2 RECEPTOR (Y-2R) AGONISTS” (priority 2009, published 2011).

SMILES strings stand for the structures. *1 amine or outer side, *2 acyl side, *3 side chain or, on linkers, in order; H or OH if unused. Where a SMILES comes first, the peptide text is derived from it. [ ]: non-standard residue; d: D form. The star is where a group is joined. MeO(CH2CH2O)23CH2CH2CO = COCCOCCOCCOCCOCCOCCOCCOCCOCCOCCOCCOCCOCCOCCOCCOCCOCCOCCOCCOCCOCCOCCOCCOCCC(=O)*; CH3O(CH2CH2O)11CH2CH2CO = COCCOCCOCCOCCOCCOCCOCCOCCOCCOCCOCCOCCC(=O)*; X1 = O=C(Cn1cnc2ccc(N3CCN([*:1])CC3)cc2c1=O)[*:2]; Arachidoyl = CCCCCCCCCCCCCCCCCCCC(=O)*; NMeR = CN[C@@H](CCCNC(=N)N)C(=O)O; Cit = NC(=O)NCCC[C@H](N)C(=O)O; Guanidino = N=C(N)N* Some results are limits rather than exact numbers.

Assay type in all cases: cell-based
One experiment has as its target T1, Y5R (Homo sapiens, UniProt Q15761).
T1 sequence (Q15761 1-445): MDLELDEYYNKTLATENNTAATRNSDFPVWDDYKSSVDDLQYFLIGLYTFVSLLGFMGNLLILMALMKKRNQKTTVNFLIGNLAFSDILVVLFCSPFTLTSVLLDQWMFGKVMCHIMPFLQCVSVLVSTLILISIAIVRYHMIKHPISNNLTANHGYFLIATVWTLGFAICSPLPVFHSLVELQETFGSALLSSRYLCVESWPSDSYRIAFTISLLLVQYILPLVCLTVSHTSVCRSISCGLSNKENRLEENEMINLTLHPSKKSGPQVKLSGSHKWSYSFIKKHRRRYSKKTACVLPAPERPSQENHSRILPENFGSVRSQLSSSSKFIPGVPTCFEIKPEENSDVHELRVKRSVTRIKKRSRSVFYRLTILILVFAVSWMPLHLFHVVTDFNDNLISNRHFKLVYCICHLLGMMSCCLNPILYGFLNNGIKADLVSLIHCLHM
Briefly: CaFlux Assay (FLIPR), Y5R.

In the next experiment the target is T2, Y1R (Homo sapiens, UniProt P25929).
T2 sequence (P25929 1-384): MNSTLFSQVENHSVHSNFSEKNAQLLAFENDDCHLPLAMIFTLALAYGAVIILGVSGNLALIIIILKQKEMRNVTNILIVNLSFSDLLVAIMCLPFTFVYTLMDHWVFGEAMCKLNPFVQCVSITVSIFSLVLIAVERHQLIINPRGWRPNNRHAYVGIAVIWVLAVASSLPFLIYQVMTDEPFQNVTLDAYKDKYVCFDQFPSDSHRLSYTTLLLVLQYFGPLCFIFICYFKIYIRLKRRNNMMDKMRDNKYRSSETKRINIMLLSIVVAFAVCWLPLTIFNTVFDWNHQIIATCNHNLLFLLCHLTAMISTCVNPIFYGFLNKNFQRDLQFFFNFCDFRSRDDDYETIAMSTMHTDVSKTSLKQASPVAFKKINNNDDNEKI
Briefly: CaFlux Assay (FLIPR), Y1R.

Experiment [1] has as its target T3, hNPY2R (Homo sapiens, UniProt P49146).
T3 sequence (P49146 1-381): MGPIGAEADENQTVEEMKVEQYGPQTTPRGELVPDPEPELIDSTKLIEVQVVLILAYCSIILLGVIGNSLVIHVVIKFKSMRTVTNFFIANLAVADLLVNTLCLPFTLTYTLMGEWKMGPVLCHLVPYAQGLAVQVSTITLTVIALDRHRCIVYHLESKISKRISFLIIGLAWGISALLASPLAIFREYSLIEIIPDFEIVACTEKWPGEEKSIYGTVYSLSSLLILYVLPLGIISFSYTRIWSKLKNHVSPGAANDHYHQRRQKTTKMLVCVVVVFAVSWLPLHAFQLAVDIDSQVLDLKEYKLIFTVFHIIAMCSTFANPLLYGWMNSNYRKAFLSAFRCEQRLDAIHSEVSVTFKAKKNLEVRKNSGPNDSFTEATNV
Briefly: cAMP Agonist Assay, HEK293/hNPY2R. Details: expressed in transfected cells; host or cells: HEK293/hNPY2R (G418 selection). The method, boiled down: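 HEK293/hNPY2R cells (10,000/well, overnight) stimulated 30 min at room temperature with compound plus 5 μM forskolin and 0.5 mM IBMX (1.1% DMSO final). Lysate cAMP measured by competitive chemiluminescent ELISA (AP conjugate, CSPD substrate); quadruplicates.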

Another experiment concerns the target Y4R (Homo sapiens, UniProt P50391). Briefly: CaFlux Assay (FLIPR), Y4R.
Experiment [2] addresses T3, hNPY2R. Briefly: CaFlux Assay (FLIPR), Y2R. The arrangement: expressed in transfected cells; host or cells: HEK-293 stably transfected with G protein chimera Gαqi9. The method, boiled down: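 HEK-293 cells stably expressing Gαqi9 and the human receptor, dye-loaded 1 h at 37° C, then compound added on FLIPR. Fluorescence read every 1.5 s for 100 s; peak increase over pre-stimulation baseline, expressed as % of positive-control maximal response.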

Y4R, sequence (P50391 whole entry): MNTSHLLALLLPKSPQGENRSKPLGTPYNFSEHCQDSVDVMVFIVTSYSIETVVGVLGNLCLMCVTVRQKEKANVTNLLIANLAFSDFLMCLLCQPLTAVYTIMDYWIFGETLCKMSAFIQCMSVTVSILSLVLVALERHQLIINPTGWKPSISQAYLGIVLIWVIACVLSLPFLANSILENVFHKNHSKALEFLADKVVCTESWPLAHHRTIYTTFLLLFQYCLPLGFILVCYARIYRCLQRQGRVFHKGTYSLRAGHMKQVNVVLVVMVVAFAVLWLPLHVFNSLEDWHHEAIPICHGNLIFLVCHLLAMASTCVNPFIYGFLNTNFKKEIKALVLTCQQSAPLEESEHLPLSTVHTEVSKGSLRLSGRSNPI

Turning to `CCCCCCCCCCCCCCCCCCCC(=O)N[C@@H](CCC(=O)O)C(=O)N[C@@H](CCC(=O)O)C(=O)N[C@H](C(=O)N[C@@H](CCCCNC(=O)CCOCCOCCOCCOCCOCCOCCOCCOCCOCCOCCOCCOCCOCCOCCOCCOCCOCCOCCOCCOCCOCCOCCOCCOC)C(=O)N1CCN(c2ccc3ncn(CC(=O)N[C@@H](CCCNC(N)=O)C(=O)N[C@@H](Cc4c[nH]cn4)C(=O)N[C@@H](Cc4ccc(O)cc4)C(=O)N[C@@H](CC(C)C)C(=O)N[C@@H](CC(N)=O)C(=O)N[C@@H](Cc4c[nH]c5ccccc45)C(=O)N[C@H](C(=O)N[C@H](C(=O)N[C@@H](CCCNC(=N)N)C(=O)N[C@@H](CCC(N)=O)C(=O)N(C)[C@@H](CCCNC(=N)N)C(=O)N[C@@H](Cc4ccc(O)cc4)C(N)=O)[C@@H](C)O)C(C)C)c(=O)c3c2)CC1)[C@@H](C)CC` [Example 49], the EC50 – broadly, the concentration needed to bring the measured effect to its halfway point – at Y5R was 518 nM; on Y1R, more than 9000 nM; at hNPY2R [1], 0.25 nM; at Y4R, more than 9000 nM; at hNPY2R [2] it was 0.098 nM. Also, the “Y5R FLIPR agonist character (partial agonist mark)” value at Y5R (FLIPR) is “P.A”.

Take `CCCCCCCCCCCCCCCCCCCC(=O)N[C@@H](CCC(=O)O)C(=O)N[C@@H](CCC(=O)O)C(=O)N[C@H](C(=O)N[C@@H](CCCCNC(=O)CCOCCOCCOCCOCCOCCOCCOCCOCCOCCOCCOCCOCCOCCOCCOCCOCCOCCOCCOCCOCCOCCOCCOCCOC)C(=O)N1CCN(c2ccc3ncn(CC(=O)N[C@@H](CCCNC(N)=O)C(=O)N[C@@H](Cc4c[nH]cn4)C(=O)N[C@@H](Cc4ccc(O)cc4)C(=O)N[C@@H](CC(C)C)C(=O)N[C@@H](CC(N)=O)C(=O)N[C@@H](Cc4c[nH]c5ccccc45)C(=O)N[C@H](C(=O)N[C@H](C(=O)N[C@@H](CCC(=O)NC(=N)N)C(=O)N[C@@H](CCC(N)=O)C(=O)N(C)[C@@H](CCCNC(=N)N)C(=O)N[C@@H](Cc4ccc(O)cc4)C(N)=O)[C@@H](C)O)C(C)C)c(=O)c3c2)CC1)[C@@H](C)CC` [Example 51] (Arachidoyl-EEIK(MeO(CH2CH2O)23CH2CH2CO)[X1][Cit]HYLNWVTE(Guanidino)Q[NMeR]Y-NH2): the EC50 was more than 6000 nM on Y5R; more than 6000 nM on Y1R; 5.5 nM at hNPY2R [1]; more than 6000 nM on Y4R; 9.4 nM at hNPY2R [2].

Turning to `CCCCCCCCCCCCCCCCCCCC(=O)N[C@@H](CCC(=O)O)C(=O)N[C@@H](CCC(=O)O)C(=O)N[C@H](C(=O)N[C@@H](CCCCNC(=O)CCOCCOCCOCCOCCOCCOCCOCCOCCOCCOCCOCCOCCOCCOCCOCCOCCOCCOCCOCCOCCOCCOCCOCCOC)C(=O)N1CCN(c2ccc3ncn(CC(=O)N[C@@H](CCCNC(=N)N)C(=O)N[C@@H](Cc4c[nH]cn4)C(=O)N[C@@H](Cc4ccc(O)cc4)C(=O)N[C@@H](CC(C)C)C(=O)N[C@@H](CC(N)=O)C(=O)N[C@@H](Cc4c[nH]c5ccccc45)C(=O)N[C@H](C(=O)N[C@H](C(=O)N[C@@H](CCCNC(=N)N)C(=O)N[C@@H](CCC(N)=O)C(=O)N(C)[C@@H](CCCNC(=N)N)C(=O)N[C@@H](Cc4ccc(O)cc4)C(N)=O)[C@@H](C)O)C(C)C)c(=O)c3c2)CC1)[C@@H](C)CC` [Example 52], the EC50 on Y5R was 4260 nM; on Y1R, more than 9000 nM; on hNPY2R [1] it was 0.2 nM; on Y4R it was more than 9000 nM; at hNPY2R [2] it was 0.147 nM.

Turning to `CCCCCCCCCCCCCCCCCCCC(=O)N[C@@H](CCC(=O)O)C(=O)N[C@@H](CCC(=O)O)C(=O)N[C@@H](C(=O)N[C@@H](CCCCNC(=O)CCOCCOCCOCCOCCOCCOCCOCCOCCOCCOCCOCCOCCOCCOCCOCCOCCOCCOCCOCCOCCOCCOCCOCCOC)C(=O)N1CCN(c2ccc3ncn(CC(=O)N[C@@H](CCCNC(=N)N)C(=O)N[C@@H](Cc4c[nH]cn4)C(=O)N[C@@H](Cc4ccc(O)cc4)C(=O)N[C@@H](CC(C)C)C(=O)N[C@@H](CC(N)=O)C(=O)N[C@@H](Cc4c[nH]c5ccccc45)C(=O)N[C@H](C(=O)N[C@H](C(=O)N[C@@H](CCCNC(=N)N)C(=O)N[C@@H](CCC(N)=O)C(=O)N(C)[C@@H](CCCNC(=N)N)C(=O)N[C@@H](Cc4ccc(O)cc4)C(N)=O)[C@@H](C)O)C(C)C)c(=O)c3c2)CC1)[C@@H](C)CC` [Example 53], the EC50 was more than 6000 nM on Y5R; more than 6000 nM on Y1R; 0.56 nM at hNPY2R [1]; more than 6000 nM at Y4R; 0.66 nM at hNPY2R [2].

As to `CCCCCCCCCCCCCCCCCCCC(=O)N[C@@H](CCC(=O)O)C(=O)N[C@@H](CCC(=O)O)C(=O)N[C@H](C(=O)N[C@@H](CCCCNC(=O)CCOCCOCCOCCOCCOCCOCCOCCOCCOCCOCCOCCOC)C(=O)N1CCN(c2ccc3ncn(CC(=O)N[C@@H](CCCNC(=N)N)C(=O)N[C@@H](Cc4c[nH]cn4)C(=O)N[C@@H](Cc4ccc(O)cc4)C(=O)N[C@@H](Cc4c[nH]cn4)C(=O)N[C@@H](CC(N)=O)C(=O)N[C@@H](Cc4c[nH]c5ccccc45)C(=O)N[C@H](C(=O)N[C@H](C(=O)N[C@@H](CCCNC(=N)N)C(=O)N[C@@H](CCC(N)=O)C(=O)N[C@@H](CCCNC(=N)N)C(=O)N[C@@H](Cc4ccc(O)cc4)C(N)=O)[C@@H](C)O)C(C)C)c(=O)c3c2)CC1)[C@@H](C)CC` [Example 55] (Arachidoyl-EEIK(CH3O(CH2CH2O)11CH2CH2CO)[X1]RHYHNWVTRQRY-NH2), the EC50 was 8.66 nM at Y5R; more than 6000 nM at Y1R; 0.014 nM on hNPY2R [1]; more than 6000 nM at Y4R; 0.027 nM on hNPY2R [2].

In the case of `CCCCCCCCCCCCCCCCCCCC(=O)N[C@@H](CCC(=O)O)C(=O)N[C@@H](CCC(=O)O)C(=O)N[C@H](C(=O)N[C@@H](CCCCNC(=O)CCOCCOCCOCCOCCOCCOCCOCCOCCOCCOCCOCCOCCOCCOCCOCCOC)C(=O)N1CCN(c2ccc3ncn(CC(=O)N[C@@H](CCCNC(=N)N)C(=O)N[C@@H](Cc4c[nH]cn4)C(=O)N[C@@H](Cc4ccc(O)cc4)C(=O)N[C@@H](Cc4c[nH]cn4)C(=O)N[C@@H](CC(N)=O)C(=O)N[C@@H](Cc4c[nH]c5ccccc45)C(=O)N[C@H](C(=O)N[C@H](C(=O)N[C@@H](CCCNC(=N)N)C(=O)N[C@@H](CCC(N)=O)C(=O)N[C@@H](CCCNC(=N)N)C(=O)N[C@@H](Cc4ccc(O)cc4)C(N)=O)[C@@H](C)O)C(C)C)c(=O)c3c2)CC1)[C@@H](C)CC` [Example 56], the EC50 was 8.73 nM at Y5R; more than 6000 nM on Y1R; 0.013 nM at hNPY2R [1]; more than 6000 nM at Y4R; 0.098 nM at hNPY2R [2].

On to `CCCCCCCCCCCCCCCCCCCC(=O)N[C@@H](CCC(=O)O)C(=O)N[C@@H](CCC(=O)O)C(=O)N[C@H](C(=O)N[C@@H](CCCCNC(=O)CCOCCOCCOCCOCCOCCOCCOCCOCCOCCOCCOCCOCCOCCOCCOCCOCCOCCOCCOCCOCCOCCOCCOCCOC)C(=O)N1CCN(c2ccc3ncn(CC(=O)N[C@@H](CCCNC(=N)N)C(=O)N[C@@H](Cc4c[nH]cn4)C(=O)N[C@@H](Cc4ccc(O)cc4)C(=O)N[C@@H](Cc4c[nH]cn4)C(=O)N[C@@H](CC(N)=O)C(=O)N[C@@H](Cc4c[nH]c5ccccc45)C(=O)N[C@H](C(=O)N[C@H](C(=O)N[C@@H](CCCNC(=N)N)C(=O)N[C@@H](CCC(N)=O)C(=O)N[C@@H](CCCNC(=N)N)C(=O)N[C@@H](Cc4ccc(O)cc4)C(N)=O)[C@@H](C)O)C(C)C)c(=O)c3c2)CC1)[C@@H](C)CC` [Example 57] (Arachidoyl-EEIK(MeO(CH2CH2O)23CH2CH2CO)[X1]RHYHNWVTRQRY-NH2), for which the EC50 was 5.67 nM at Y5R; more than 6000 nM at Y1R; 0.011 nM at hNPY2R [1]; more than 6000 nM on Y4R; 0.016 nM at hNPY2R [2].
